In this experiment the target is T1, human SK3 channel (hKCa0.2.3) (Homo sapiens, UniProt Q9UGI6).
T1 construct: expressed in transfected cells
Put plainly: Automated patch clamping (QPatch whole-cell). It is filed as cell-based. The note with it: HEK-293 cells stably expressing human SK3; free calcium 400 nM; normalized to inhibitory effect of N-methyl bicuculline. On the procedure:
Automated whole cell patch-clamp recordings were performed using a QPatch 16 HT system and single-hole Qplates (Biolin Scientific, Sophion, Denmark) on HEK-293 cells stably expressing the human SK3 channel (hKCa0.2.3). Cells were cultured and prepared for experiments using normal cell culturing procedures. A total of 4-5 million cells were used per experiment. The Qpatch automatically generates giga sealing, whole-cell formation, compound application and recording of current. hKCa2.3 currents were recorded in symmetrical K^+ solutions, with an intracellular solution consisting of in mM: KCl 108; KOH/EGTA (ethylene glycol-bis(2-aminoethylether)-N,N,N′,N′-tetraacetic acid) 31.25/10; CaCl2) 8.1; MgCl2 1.2; HEPES (2-[4-(2-hydroxyethyl)piperazin-1-yl]ethanesulfonic acid) 10; KOH 15, pH adjusted to pH=7.2 with HCl. The free calcium concentration was calculated to 400 nM. The extracellular solution consisted of in mM: KCl 150; CaCl2) 0.1; MgCl2 3; HEPES 10; Glucose 10, pH=7.4 with KOH. The cells were held at 0 mV and hKCa0.2.3 currents were elicited by a linear voltage ramp from −80 mV to +80 mV (200 ms in duration) applied every 5th second. The compound application protocol consisted of 12 recording periods lasting from 50-200 s: 1) Baseline recordings in extracellular solution; 2) Application of the positive control N-methyl bicuculline (100 μM), which is characterized by full efficacy, fast on- and off-rate; 3-4) Wash-out; 5-9) Increasing concentrations of test compound to establish an IC50 value; 10-11) Wash-out; 12) positive control with compound NS8593 (N-[(1R)-1,2,3,4-tetrahydro-1-naphthalenyl]-1H-benzimidazol-2-amine) (1 μM). Data were sampled at 10 kHz, 4th order Bessel filter, cut-off frequency 3 kHz. Currents were compensated for run-down. Potency was quantified as the concentration needed to inhibit half of the SK channel activity and reported as an IC50 value. All effects of compounds of the present invention as tested were normalized to the observed inhibitory effect of N-methyl bicuculline.
For orientation: In patch-clamp work, channel activity is measured electrically.
With `CNC(=O)C(C)(Nc1nc2ccccc2[nH]1)c1cccc(C(F)(F)F)c1` (single isomer, unassigned; (+)) [Example 26a, (+)-2-[(1H-1,3-benzodiazol-2-yl)amino]-N-methyl-2-[3-(trifluoromethyl)phenyl]propanamide], the IC50 was under 10 µM.

On to `CN(C)C(=O)C(Nc1nc2ccccc2[nH]1)c1cccc(C(F)(F)F)c1` (single isomer, unassigned; (-)) [Example 1a, (−)2-[(1H-1,3-benzodiazol-2-yl)amino]-N,N-dimethyl-2-[3-(trifluoromethyl)phenyl]acetamide], for which the IC50 is under 10 µM.

`CNC(=O)CC(Nc1nc2ccccc2[nH]1)c1cccc(C(F)(F)F)c1` (single isomer, unassigned; (-)) [Example 2a, (−)3-[(1H-1,3-benzodiazol-2-yl)amino]-N-methyl-3-[3(trifluoromethyl)phenyl]propanamide]: the IC50 is under 10 µM.

With `CNC(=O)CCC(Nc1nc2ccccc2[nH]1)c1cccc(C(F)(F)F)c1` (single isomer, unassigned; (-)) [Example 25a, (−)-4-[(1H-1,3-benzodiazol-2-yl)amino]-N-methyl-4-[3-(trifluoromethyl)phenyl]butanamide], the IC50 is under 10 µM.

Regarding `CN(C)C(=O)C(Nc1nc2ccccc2[nH]1)c1cccc(C(F)(F)F)c1` (centres unmarked) [Example 1, 2-[(1H-1,3-benzodiazol-2-yl)amino]-N,N-dimethyl-2-[3-(trifluoromethyl)phenyl]acetamide], the IC50 was under 10 µM.

As for `CNC(=O)CC(Nc1nc2ccccc2[nH]1)c1cccc(C(F)(F)F)c1` (centres unmarked) [Example 2, 3-[(1H-1,3-benzodiazol-2-yl)amino]-N-methyl-3-[3(trifluoromethyl)phenyl]propanamide], the IC50 was under 10 µM.

Take `C=CCNC(=O)CC(Nc1nc2ccccc2[nH]1)c1cccc(C(F)(F)F)c1` (centres unmarked) [Example 3, 3-[(1H-1,3-benzodiazol-2-yl)amino]-N-(prop-2-en-1-yl)-3-[3-(trifluoromethyl)phenyl]propanamide]: the IC50 was under 10 µM.

Turning to `CNC(=O)CC(Nc1nc2c(C)c(F)ccc2[nH]1)c1cccc(C(F)(F)F)c1` (centres unmarked) [Example 4, 3-[(5-fluoro-4-methyl-1H-1,3-benzodiazol-2-yl)amino]-N-methyl-3-[3-(trifluoromethyl)phenyl]propanamide], the IC50 is under 10 µM.

`CNC(=O)CC(Nc1nc2c(C)cccc2[nH]1)c1cccc(C(F)(F)F)c1` (centres unmarked) [Example 5, N-methyl-3-[(4-methyl-1H-1,3-benzodiazol-2-yl)amino]-3-[3-(trifluoromethyl)phenyl]propanamide]: the IC50 was under 10 µM.

Regarding `CNC(=O)CC(Nc1nc2c(CCO)cccc2[nH]1)c1cccc(C(F)(F)F)c1` (centres unmarked) [Example 6, 3-{[4-(2-hydroxyethyl)-1H-1,3-benzodiazol-2-yl]amino}-N-methyl-3-[3-(trifluoromethyl)phenyl]propanamide], the IC50 is under 100 µM.

`COC(=O)C(Cc1cccc(C(F)(F)F)c1)Nc1nc2c(NC(C)=O)cccc2[nH]1` (centres unmarked) [Example 7, methyl 2-[(4-acetamido-1H-1,3-benzodiazol-2-yl)amino]-3-[3-(trifluoromethyl)phenyl]propanoate]: the IC50 is under 10 µM.

`CNC(=O)C(Cc1cccc(C(F)(F)F)c1)Nc1nc2ccccc2[nH]1` (centres unmarked) [Example 8, 2-[(1H-1,3-benzodiazol-2-yl)amino]-N-methyl-3-[3-(trifluoromethyl)phenyl]propanamide]: the IC50 was under 100 µM.

For the molecule `CNC(=O)CC(Nc1nc2ccccc2[nH]1)c1cc(C)c(F)c(C)c1` (centres unmarked) [Example 9, 3-[(1H-1,3-benzodiazol-2-yl)amino]-3-(4-fluoro-3,5-dimethylphenyl)-N-methylpropanamide], the half-maximal inhibitory concentration (IC50) was under 10 µM.

With `CNC(=O)CC(Nc1nc2ccccc2[nH]1)c1ccc(Cl)c(C)c1` (centres unmarked) [Example 10, 3-[(1H-1,3-benzodiazol-2-yl)amino]-3-(4-chloro-3-methylphenyl)-N-methylpropanamide], the IC50 is under 10 µM.

For `CON(C)C(=O)CC(Nc1nc2ccccc2[nH]1)c1cccc(C(F)(F)F)c1` (centres unmarked) [Example 11, 3-[(1H-1,3-benzodiazol-2-yl)amino]-N-methoxy-N-methyl-3-[3-(trifluoromethyl)phenyl]propanamide], the IC50 was under 10 µM.

In the case of `CNC(=O)CC(Nc1nc2ccccc2[nH]1)c1cccc(SC)c1` (centres unmarked) [Example 12, 3-[(1H-1,3-benzodiazol-2-yl)amino]-N-methyl-3-[3-(methylsulfanyl)phenyl]propanamide], the IC50 was under 10 µM.

Take `CNC(=O)CC(Nc1nc2ccccc2[nH]1)c1cccc(OC(F)(F)F)c1` (centres unmarked) [Example 13, 3-[(1H-1,3-benzodiazol-2-yl)amino]-N-methyl-3-[3-(trifluoromethoxy)phenyl]propanamide]: the IC50 was under 10 µM.

Consider `Cc1c(F)ccc2[nH]c(NC(CC(N)=O)c3cccc(C(F)(F)F)c3)nc12` (centres unmarked) [Example 14, 3-[(5-fluoro-4-methyl-1H-1,3-benzodiazol-2-yl)amino]-3-[3-(trifluoromethyl)phenyl]propanamide], for which the IC50 was under 10 µM.

With `CC(C)CNC(=O)C(Nc1nc2ccccc2[nH]1)c1cccc(C(F)(F)F)c1` (centres unmarked) [Example 15, 2-[(1H-1,3-benzodiazol-2-yl)amino]-N-(2-methylpropyl)-2-[3-(trifluoromethyl)phenyl]acetamide], the IC50 is under 10 µM.

For `O=C(NC1CC1)C(Nc1nc2ccccc2[nH]1)c1cccc(C(F)(F)F)c1` (centres unmarked) [Example 16, 2-[(1H-1,3-benzodiazol-2-yl)amino]-N-cyclopropyl-2-[3-(trifluoromethyl)phenyl]acetamide], the IC50 was under 10 µM.

With `CNC(=O)CC(Nc1nc2cc(F)ccc2[nH]1)c1cccc(C(F)(F)F)c1` (centres unmarked) [Example 17, 3-[(5-fluoro-1H-1,3-benzodiazol-2-yl)amino]-N-methyl-3-[3-(trifluoromethyl)phenyl]propanamide], the IC50 is under 10 µM.

For `CNC(=O)CC(Nc1nc2cc(OC(F)(F)F)ccc2[nH]1)c1cccc(C(F)(F)F)c1` (centres unmarked) [Example 18, N-methyl-3-{[5-(trifluoromethoxy)-1H-1,3-benzodiazol-2-yl]amino}-3-[3-(trifluoromethyl)phenyl]propanamide; trifluoroacetic acid], the IC50 is under 10 µM.

In the case of `CNC(=O)CC(Nc1nc2c(COC)cccc2[nH]1)c1cccc(C(F)(F)F)c1` (centres unmarked) [Example 19, 3-{[4-(methoxymethyl)-1H-1,3-benzodiazol-2-yl]amino}-N-methyl-3-[3-(trifluoromethyl)phenyl]propanamide], the 50% inhibitory concentration (IC50) was under 10 µM.

Consider `CNC(=O)CC(Nc1nc2c(Cl)cccc2[nH]1)c1cccc(C(F)(F)F)c1` (centres unmarked) [Example 20, 3-[(4-chloro-1H-1,3-benzodiazol-2-yl)amino]-N-methyl-3-[3-(trifluoromethyl)phenyl]propanamide], for which the IC50 is under 10 µM.

Consider `CNC(=O)CC(Nc1nc2c(CO)cccc2[nH]1)c1cccc(SC(F)(F)F)c1` (centres unmarked) [Example 21, 3-{[4-(hydroxymethyl)-1H-1,3-benzodiazol-2-yl]amino}-N-methyl-3-{3-[(trifluoromethyl)sulfanyl]phenyl}propanamide], for which the IC50 is under 10 µM.

Consider `CNC(=O)CC(Nc1nc2ccccc2[nH]1)c1ccc(Cl)c(Cl)c1` (centres unmarked) [Example 22, 3-[(1H-1,3-benzodiazol-2-yl)amino]-3-(3,4-dichlorophenyl)-N-methylpropanamide], for which the IC50 was under 10 µM.

As for `CNC(=O)CC(Nc1nc2ccccc2[nH]1)c1cccc(C(=O)OC)c1` (centres unmarked) [Example 24, methyl 3-{1-[(1H-1,3-benzodiazol-2-yl)amino]-2-(methylcarbamoyl)ethyl}benzoate], the IC50 was under 10 µM.

Regarding `CNC(=O)CCC(Nc1nc2ccccc2[nH]1)c1cccc(C(F)(F)F)c1` (centres unmarked) [Example 25, 4-[(1H-1,3-benzodiazol-2-yl)amino]-N-methyl-4-[3-(trifluoromethyl)phenyl]butanamide], the IC50 is under 10 µM.

In the case of `CNC(=O)C(C)(Nc1nc2ccccc2[nH]1)c1cccc(C(F)(F)F)c1` (centres unmarked) [Example 26, 2-[(1H-1,3-benzodiazol-2-yl)amino]-N-methyl-2-[3-(trifluoromethyl)phenyl]propanamide; trifluoroacetic acid], the IC50 is under 10 µM.

In general, IC50 refers to the midpoint of a concentration-inhibition curve.

(Values after patent publication US11098018B2, “Potassium channel inhibitors” (ACESION PHARMA ApS, priority 2017, dated 2021).)
